Experimental data taken from ChEMBL document CHEMBL1221239, “Triaryl (Z)-olefins suitable for radiolabeling with carbon-11 or fluorine-18 radionuclides for positron emission tomography imaging of cyclooxygenase-2 expression in pathological disease” (Bioorg Med Chem Lett, 2010).
pIC50: −log10 of the molar value.

What was measured:
[1] = biological target: T1, Prostaglandin G/H synthase 1 (Ovis aries, UniProt P05979)
T1 sequence (P05979 whole entry): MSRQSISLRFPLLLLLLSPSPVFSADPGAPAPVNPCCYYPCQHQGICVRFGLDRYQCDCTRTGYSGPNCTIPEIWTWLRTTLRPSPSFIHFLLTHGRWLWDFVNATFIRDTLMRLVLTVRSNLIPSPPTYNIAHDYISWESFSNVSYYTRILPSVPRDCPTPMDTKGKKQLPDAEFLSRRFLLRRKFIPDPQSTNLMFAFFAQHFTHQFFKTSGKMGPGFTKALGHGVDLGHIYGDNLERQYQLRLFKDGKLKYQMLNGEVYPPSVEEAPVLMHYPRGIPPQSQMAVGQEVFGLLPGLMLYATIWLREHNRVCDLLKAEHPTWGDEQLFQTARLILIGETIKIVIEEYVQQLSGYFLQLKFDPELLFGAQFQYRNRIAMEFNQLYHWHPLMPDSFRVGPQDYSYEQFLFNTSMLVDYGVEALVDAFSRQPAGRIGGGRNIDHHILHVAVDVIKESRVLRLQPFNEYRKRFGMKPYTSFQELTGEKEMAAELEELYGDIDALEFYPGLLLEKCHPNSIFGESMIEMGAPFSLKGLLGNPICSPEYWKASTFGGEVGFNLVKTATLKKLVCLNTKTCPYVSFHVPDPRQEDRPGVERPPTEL
Description: Inhibition of ovine COX1 by EIA

[2] = biological target: T2, Prostaglandin G/H synthase 2 (Homo sapiens, UniProt P35354); assay: Inhibition of human recombinant COX2 by EIA
T2 sequence (P35354 whole entry): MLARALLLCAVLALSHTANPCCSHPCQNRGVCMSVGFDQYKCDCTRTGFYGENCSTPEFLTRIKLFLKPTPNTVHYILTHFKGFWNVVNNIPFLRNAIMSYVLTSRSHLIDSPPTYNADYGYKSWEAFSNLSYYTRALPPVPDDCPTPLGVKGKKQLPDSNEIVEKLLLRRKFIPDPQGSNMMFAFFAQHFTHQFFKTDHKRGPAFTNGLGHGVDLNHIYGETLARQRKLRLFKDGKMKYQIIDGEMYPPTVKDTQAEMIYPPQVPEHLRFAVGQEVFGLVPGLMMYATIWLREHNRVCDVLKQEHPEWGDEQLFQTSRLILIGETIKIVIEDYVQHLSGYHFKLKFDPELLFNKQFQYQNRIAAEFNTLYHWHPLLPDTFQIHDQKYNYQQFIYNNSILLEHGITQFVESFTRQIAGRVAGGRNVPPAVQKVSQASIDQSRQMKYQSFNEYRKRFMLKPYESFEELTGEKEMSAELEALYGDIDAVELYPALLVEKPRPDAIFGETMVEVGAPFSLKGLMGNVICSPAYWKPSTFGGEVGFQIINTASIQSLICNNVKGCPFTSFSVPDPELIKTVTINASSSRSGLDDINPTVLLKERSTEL

[3] = Selectivity index, ratio of IC50 for ovine COX1 to IC50 for human recombinant COX2

| Structure (SMILES) | pIC50 [1] | pIC50 [2] | Ratio IC50 [3] |
| --- | --- | --- | --- |
| CS(=O)(=O)c1ccc(C(CCF)=C(c2ccccc2)c2ccccc2)cc1 | < 4.00 | < 4.00 | – |
| CCCC/C(=C(\c1ccccc1)c1ccc(OCCF)cc1)c1ccc(S(C)(=O)=O)cc1 | < 4.00 | 4.65 | > 4.5 |
| CCCC/C(=C(\c1ccccc1)c1ccc(OC)cc1)c1ccc(S(C)(=O)=O)cc1 | < 4.00 | 5.11 | > 13 |
| CC/C(=C(\c1ccccc1)c1ccc(OC)cc1)c1ccc(S(C)(=O)=O)cc1 | < 4.00 | 4.97 | > 9.3 |
| CCCC/C(=C(\c1ccccc1)c1ccc(O)cc1)c1ccc(S(C)(=O)=O)cc1 | < 4.00 | 4.93 | > 8.5 |

Now from value to molecule:

| pIC50 [1] | pIC50 [2] | Ratio IC50 [3] | Structure (SMILES) |
| --- | --- | --- | --- |
| 5.04 | 5.57 | 3.4 | CCCCC(=C(c1ccccc1)c1ccccc1)c1ccc(S(C)(=O)=O)cc1 |
| 4.50 | 5.92 | 26.3 | CCC(=C(c1ccccc1)c1ccccc1)c1ccc(S(C)(=O)=O)cc1 |
